Measurements reported in the supplement of paper PMC10307832.

Columns and labels:
Test in all cases: relative viability (nuclei count vs DMSO), 5 days (fraction); higher = more cells survive
201T = tested on: 201T
In short: (§1)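 Cells from lung cancer lines were seeded into 1536-well plates and, one day later, dosed by pin tool. Treatments were either a single drug or a fixed dose of an anchor drug with five library-drug doses (not always all listed) in √10 steps. After 5 days, nuclei were stained in a one-step fixation (final 0.05% Triton X-100, 1% formaldehyde, 1 ug/ml Hoechst) and counted on 4× images, and relative viability is the treated-to-vehicle nuclei ratio, as the median of duplicate plates.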

BEN = tested on: BEN
In short: as §1

COR-L 105 = tested on: COR-L 105
In short: as §1

EKVX = tested on: EKVX
In short: as §1

EPLC-272H = tested on: EPLC-272H
In short: as §1

H3255 = tested on: H3255
In short: as §1

HCC-44 = tested on: HCC-44
In short: as §1

HCC-827 = tested on: HCC-827
In short: as §1

HOP-62 = tested on: HOP-62
In short: as §1

LCLC-97TM1 = tested on: LCLC-97TM1
In short: as §1

LOU-NH91 = tested on: LOU-NH91
In short: as §1

LU99A = tested on: LU99A
In short: as §1

NCI-H1395 = tested on: NCI-H1395
In short: as §1

NCI-H1437 = tested on: NCI-H1437
In short: as §1

NCI-H1666 = tested on: NCI-H1666
In short: as §1

NCI-H1975 = tested on: NCI-H1975
In short: as §1

NCI-H2085 = tested on: NCI-H2085
In short: as §1

NCI-H2087 = tested on: NCI-H2087
In short: as §1

NCI-H358 = tested on: NCI-H358
In short: as §1

NCI-H647 = tested on: NCI-H647
In short: as §1

PC-3 [JPC-3] = tested on: PC-3 [JPC-3]
In short: as §1

SW 1573 = tested on: SW 1573
In short: as §1

C=C1C(=O)O[C@@H](CCCCCCCC)[C@@H]1C(=O)O [C-75] + Cc1nc(NC(=O)N2CCC[C@H]2C(N)=O)sc1-c1ccnc(C(C)(C)C(F)(F)F)c1 [Alpelisib] (partner 2 µM)
relative viability (201T; first compound 0.08 µM): 0.981
relative viability (201T; first compound 0.253 µM): 1.08
relative viability (201T; first compound 0.8 µM): 1.02
relative viability (201T; first compound 2.53 µM): 0.975
relative viability (201T; first compound 8 µM): 1.07
relative viability (BEN; first compound 0.08 µM): 0.983
relative viability (BEN; first compound 0.253 µM): 1.15
relative viability (BEN; first compound 0.8 µM): 0.953
relative viability (BEN; first compound 2.53 µM): 0.926
relative viability (BEN; first compound 8 µM): 0.91
relative viability (COR-L 105; first compound 0.08 µM): 1.15
relative viability (COR-L 105; first compound 0.253 µM): 1.1
relative viability (COR-L 105; first compound 0.8 µM): 1.06
relative viability (COR-L 105; first compound 2.53 µM): 0.895
relative viability (COR-L 105; first compound 8 µM): 0.668
relative viability (EKVX; first compound 0.08 µM): 0.885
relative viability (EKVX; first compound 0.253 µM): 0.863
relative viability (EKVX; first compound 0.8 µM): 0.913
relative viability (EKVX; first compound 2.53 µM): 0.583
relative viability (EKVX; first compound 8 µM): 0.969
relative viability (EPLC-272H; first compound 0.08 µM): 0.95
relative viability (EPLC-272H; first compound 0.253 µM): 1.03
relative viability (EPLC-272H; first compound 0.8 µM): 0.873
relative viability (EPLC-272H; first compound 2.53 µM): 0.732
relative viability (EPLC-272H; first compound 8 µM): 0.862
relative viability (H3255; first compound 0.08 µM): 0.615
relative viability (H3255; first compound 0.253 µM): 0.789
relative viability (H3255; first compound 0.8 µM): 0.638
relative viability (H3255; first compound 2.53 µM): 0.828
relative viability (H3255; first compound 8 µM): 0.78
relative viability (HCC-44; first compound 0.08 µM): 0.742
relative viability (HCC-44; first compound 0.253 µM): 0.674
relative viability (HCC-44; first compound 0.8 µM): 0.719
relative viability (HCC-44; first compound 2.53 µM): 0.614
relative viability (HCC-44; first compound 8 µM): 0.719
relative viability (HCC-827; first compound 0.08 µM): 0.936
relative viability (HCC-827; first compound 0.253 µM): 0.97
relative viability (HCC-827; first compound 0.8 µM): 0.953
relative viability (HCC-827; first compound 2.53 µM): 1.01
relative viability (HCC-827; first compound 8 µM): 0.987
relative viability (HOP-62; first compound 0.08 µM): 0.9
relative viability (HOP-62; first compound 0.253 µM): 1.11
relative viability (HOP-62; first compound 0.8 µM): 0.95
relative viability (HOP-62; first compound 2.53 µM): 0.926
relative viability (HOP-62; first compound 8 µM): 0.765
relative viability (LCLC-97TM1; first compound 0.08 µM): 0.286
relative viability (LCLC-97TM1; first compound 0.253 µM): 0.376
relative viability (LCLC-97TM1; first compound 0.8 µM): 0.225
relative viability (LCLC-97TM1; first compound 2.53 µM): 0.251
relative viability (LCLC-97TM1; first compound 8 µM): 0.271
relative viability (LOU-NH91; first compound 0.08 µM): 0.771
relative viability (LOU-NH91; first compound 0.253 µM): 0.643
relative viability (LOU-NH91; first compound 0.8 µM): 0.719
relative viability (LOU-NH91; first compound 2.53 µM): 0.744
relative viability (LOU-NH91; first compound 8 µM): 0.723
relative viability (LU99A; first compound 0.08 µM): 0.537
relative viability (LU99A; first compound 0.253 µM): 0.547
relative viability (LU99A; first compound 0.8 µM): 0.516
relative viability (LU99A; first compound 2.53 µM): 0.483
relative viability (LU99A; first compound 8 µM): 0.389
relative viability (NCI-H1395; first compound 0.08 µM): 1.05
relative viability (NCI-H1395; first compound 0.253 µM): 1.13
relative viability (NCI-H1395; first compound 0.8 µM): 1.07
relative viability (NCI-H1395; first compound 2.53 µM): 0.868
relative viability (NCI-H1395; first compound 8 µM): 1.28
relative viability (NCI-H1437; first compound 0.08 µM): 0.942
relative viability (NCI-H1437; first compound 0.253 µM): 0.969
relative viability (NCI-H1437; first compound 0.8 µM): 1.01
relative viability (NCI-H1437; first compound 2.53 µM): 0.961
relative viability (NCI-H1437; first compound 8 µM): 1.07
relative viability (NCI-H1666; first compound 0.08 µM): 0.908
relative viability (NCI-H1666; first compound 0.253 µM): 1.13
relative viability (NCI-H1666; first compound 0.8 µM): 0.879
relative viability (NCI-H1666; first compound 2.53 µM): 0.987
relative viability (NCI-H1666; first compound 8 µM): 0.71
relative viability (NCI-H1975; first compound 0.08 µM): 0.657
relative viability (NCI-H1975; first compound 0.253 µM): 0.675
relative viability (NCI-H1975; first compound 0.8 µM): 0.698
relative viability (NCI-H1975; first compound 2.53 µM): 0.61
relative viability (NCI-H1975; first compound 8 µM): 0.66
relative viability (NCI-H2085; first compound 0.08 µM): 0.974
relative viability (NCI-H2085; first compound 0.253 µM): 1.1
relative viability (NCI-H2085; first compound 0.8 µM): 0.957
relative viability (NCI-H2085; first compound 2.53 µM): 0.89
relative viability (NCI-H2085; first compound 8 µM): 0.898
relative viability (NCI-H2087; first compound 0.08 µM): 1.07
relative viability (NCI-H2087; first compound 0.253 µM): 0.921
relative viability (NCI-H2087; first compound 0.8 µM): 1.02
relative viability (NCI-H2087; first compound 2.53 µM): 0.682
relative viability (NCI-H2087; first compound 8 µM): 0.934
relative viability (NCI-H358; first compound 0.08 µM): 0.851
relative viability (NCI-H358; first compound 0.253 µM): 0.735
relative viability (NCI-H358; first compound 0.8 µM): 0.789
relative viability (NCI-H358; first compound 2.53 µM): 0.859
relative viability (NCI-H358; first compound 8 µM): 0.808
relative viability (NCI-H647; first compound 0.08 µM): 0.972
relative viability (NCI-H647; first compound 0.253 µM): 1.28
relative viability (NCI-H647; first compound 2.53 µM): 1
relative viability (NCI-H647; first compound 8 µM): 0.643
relative viability (PC-3 [JPC-3]; first compound 0.08 µM): 1.02
relative viability (PC-3 [JPC-3]; first compound 0.253 µM): 0.981
relative viability (PC-3 [JPC-3]; first compound 0.8 µM): 1.07
relative viability (PC-3 [JPC-3]; first compound 2.53 µM): 1.09
relative viability (PC-3 [JPC-3]; first compound 8 µM): 1.12
relative viability (SW 1573; first compound 0.08 µM): 0.711
relative viability (SW 1573; first compound 0.253 µM): 0.7
relative viability (SW 1573; first compound 0.8 µM): 0.638
relative viability (SW 1573; first compound 2.53 µM): 0.683
relative viability (SW 1573; first compound 8 µM): 0.655
